Experimental data taken from patent US6407104B1, “Pyrrolo[1,2-a]pyrazine spla2 inhibitor” (Shionogi & Co., Ltd., priority 1998, dated 2002).
Where a name gives a salt, the structure may show the parent alone.

Assays:
[1] = biological target: T1, recombinant human secretory phospholipase A2 (Homo sapiens, UniProt P14555); assay: Inhibition Test of Human Secretory Phospholipase A2 (chromogenic assay); type: biochemical; conditions: sPLA2 50 ng/well, 40° C., 30 minutes, OD 405 nm, 96 well microtiterplate
T1 sequence (P14555 21-144): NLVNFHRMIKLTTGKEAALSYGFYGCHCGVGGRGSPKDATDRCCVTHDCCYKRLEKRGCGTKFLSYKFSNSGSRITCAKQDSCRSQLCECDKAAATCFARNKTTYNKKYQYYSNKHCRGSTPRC
Description: Test Example: Inhibition Test of Human Secretory Phospholipase A2
In order to identify and evaluate an inhibitor of recombinant human secretory phospholipase A2, the following chromogenic assay is utilized. The assay herein has been applied for high volume screening wherein 96 well microtiterplate is used. A general explanation for such assay is described in “Analysis of Human Synovial Fluid Phospholipase A2 on Short Chain Phosphatidylcholine-Mixed Micelles: Development of a Spectrophotometric Assay Suitable for a Micortiterplate Reader” (Analytical Biochemistry, 204, pp 190-197, 1992 by Laure. J. Reynolds. Lori L. Hughes and Edward A. Dennis: the disclosure of which is incorporated herein for reference.
pH 7.5 (adjusted with NaOH)
pH 4.5 (adjusted with acetic acid)
1 mg of sPLA2 is dissolved in 1 ml of an enzyme buffer. Thereafter, the solution is maintained at 4° C.
In the assay, 5 μl of the solution is diluted with 1995 μl of the reaction buffer to be used.
198 mg of 5,5′-dithiobis-2-[…] (manufactured by Wako Pure Chemicals) is dissolved in 100 ml of H2O
H 7.5 (adjusted with NaOH)
100 mg of racemic 1,2-bis(heptanoylthio)-1,2-dideoxy-sn-glycero-3-phospholylcholine is dissolved in 1 ml of chloroform.
624.9 mg of Triton-X 100 is dissolved in the reaction buffer.
Enzyme Reaction: for 1 Plate of Microtiterplate
1) 0.106 ml of the substrate solution is put in a centrifugal tube, and nitrogen gas is jetted to remove the solvent. 0.54 ml of Triton-X 100 is added thereto, the mixture is stirred, thereafter it is sonified in a bath type sonification to dissolve. To the resulting product are added 17.8 ml of the reaction buffer and 0.46 ml of DTNB, and 0.18 ml each of the admixture is poured to wells of the 96 well microtiterplate.
2) 10 μl of a test compound (or solvent blank) are added in accordance with alignment of plates which has been previously set.
3) Incubation is effected at 40° C. for 15 minutes.
4) 20μl of an enzyme solution (sPLA2) which has been previously diluted (50 ng/well) are added to start reaction (40° C., 30 minutes).
5) Changes in absorbancy for 30 minutes are measured by a plate reader, and inhibition activity was calculated (OD: 405 nm).
6) IC50 was determined by plotting log concentration with respect to inhibition values within 10% to 90% inhibiting range.

IC50 [1] [nM]	melting point [°C]	Compound
211	178 to 180	CCc1c(C(=O)C(N)=O)c2c(OCC(=O)OC)nc(Cc3ccccc3)cn2c1Cc1ccccc1 [Compound I-49]
78		CCc1c(C(=O)C(N)=O)c2c(OCC(=O)OCCN3CCOCC3)nc(C)cn2c1Cc1ccccc1-c1cccs1 [Compound I-97]
512	165 to 166	CCc1c(C(=O)C(N)=O)c2c(OCC(=O)OC)nccn2c1CC1CCCC1 [Compound I-15]
10	209 to 211	CCc1c(C(=O)C(N)=O)c2c(OCC(=O)O)nccn2c1Cc1ccc2ccsc2c1 [Compound I-12]
7	233 to 234	CCc1c(C(=O)C(N)=O)c2c(OCC(=O)O)nc(-c3ccccc3)cn2c1Cc1ccccc1 [Compound I-44]
1550		CCc1c(C(=O)C(N)=O)c2c(OCC(=O)OC)nc(C)cn2c1Cc1ccccc1-c1cccnc1 [Compound I-65]
21		CCc1c(C(=O)C(N)=O)c2c(OCC(=O)O)nc(C)cn2c1Cc1ccccc1-c1ccc(F)cc1 [Compound I-100]
62	193 to 194	CCc1c(C(=O)C(N)=O)c2c(OCC(=O)OC)nc(C3CCCCC3)cn2c1Cc1ccccc1 [Compound I-79]
2620	177 to 179	COC(=O)COc1nccn2c(Cc3ccccc3)c(C3CC3)c(C(=O)C(N)=O)c12 [Compound I-3]
282	182 to 183	CCCOC(=O)COc1nc(C)cn2c(Cc3ccc(F)cc3)c(CC)c(C(=O)C(N)=O)c12 [Compound I-93]
8	211 to 213	CCc1c(C(=O)C(N)=O)c2c(OCC(=O)O)nc(C)cn2c1Cc1csc2ccccc12 [Compound I-88]
21		CCc1c(C(=O)C(N)=O)c2c(OCC(=O)O)nc(C)cn2c1Cc1ccc(F)cc1 [Compound I-99]
8		CCc1c(C(=O)C(N)=O)c2c(OCC(=O)O)nc(C)cn2c1Cc1ccccc1-c1ccc(OC)cc1 [Compound I-68]
17	192 to 193	CCc1c(C(=O)C(N)=O)c2c(OCC(=O)O)nc(C)cn2c1CC1CCCC1 [Compound I-24]
116	205 to 207	COC(=O)COc1nc(C)cn2c(Cc3ccccc3)c(C)c(C(=O)C(N)=O)c12 [Compound I-83]
435	154 to 155	CCc1c(C(=O)C(N)=O)c2c(OCC(=O)OC)nccn2c1Cc1cccc(OC)c1 [Compound I-9]
8	192 to 194	CCc1c(C(=O)C(N)=O)c2c(OCC(=O)O)nc(C)cn2c1Cc1ccccc1-c1ccccc1 [Compound I-22, [6-(2-Biphenylmethyl)-7-ethyl-3-methyl-8-oxamoylpyrrolo [1,2-a]pyrazin-1-yl]oxyacetic acid]
117	129 to 130	CCc1c(C(=O)C(N)=O)c2c(OCC(=O)OC)nc(CC(C)C)cn2c1Cc1ccccc1 [Compound I-45]
26	200 to 201.5	CCc1c(C(=O)C(N)=O)c2c(OCC(=O)O)nc(C)cn2c1Cc1ccc(OC)cc1 [Compound I-34]
11	205 to 206	CCc1c(C(=O)C(N)=O)c2c(OCC(=O)O)nccn2c1CC1CCCCC1 [Compound I-8]
370	203 to 204	CCc1c(C(=O)C(N)=O)c2c(OCC(=O)OC)nc(C)cn2c1Cc1ccc(C)s1 [Compound I-85]

IC50 [1] [nM]	melting point [°C]	Compound
6	203 to 205	CCc1c(C(=O)C(N)=O)c2c(OCC(=O)O)nccn2c1CC1CCCC1 [Compound I-16]
8	199.5 to 201	Cc1cn2c(Cc3ccccc3)c(C)c(C(=O)C(N)=O)c2c(OCC(=O)O)n1 [Compound I-84]
33	167.5 to 169.5	CCc1c(C(=O)C(N)=O)c2c(OCC(=O)OC)nc(C)cn2c1Cc1ccccc1-c1ccc(C)cc1 [Compound I-69]
151	190 to 191	CCc1c(C(=O)C(N)=O)c2c(OCC(=O)OC)nc(C(C)C)cn2c1Cc1ccccc1 [Compound I-39]
562	167 to 168	CCc1c(C(=O)C(N)=O)c2c(OCC(=O)OC)nc(C)cn2c1Cc1ccc(F)cc1 [Compound I-19]
57	179.5 to 181	CCc1c(C(=O)C(N)=O)c2c(OCC(=O)OC)nc(C)cn2c1Cc1cccc(-c2ccc(C)s2)c1 [Compound I-63]
20		CCc1c(C(=O)C(N)=O)c2c(OCC(=O)O)nc(C)cn2c1Cc1ccccc1-c1ccsc1 [Compound I-102]
12	218 to 219	CCc1c(C(=O)C(N)=O)c2c(OCC(=O)O)nc(C)cn2c1Cc1ccccc1F [Compound I-26]
9	225 to 227	CCc1c(C(=O)C(N)=O)c2c(OCC(=O)O)nccn2c1Cc1cccs1 [Compound I-6]
	250 to 265	CCc1c(C(=O)C(N)=O)c2c(OCC(=O)O)nc(C)cn2c1Cc1ccc(F)cc1 (as salt: Na) [Compound I-99]
5		CCc1c(C(=O)C(N)=O)c2c(OCC(=O)O)nc(C)cn2c1Cc1ccccc1-c1cccs1 [Compound I-52, [7-Ethyl-3-methyl-8-oxamoyl-6-(2-(2-thienyl)benzyl)pyrrolo[1,2-a]pyrazin-1-yl]oxyacetic acid]
57		CCc1c(C(=O)C(N)=O)c2c(OCC(=O)OC)nc(C)cn2c1Cc1ccccc1-c1ccc(OC)cc1 [Compound I-67]
19		CCc1c(C(=O)C(N)=O)c2c(OCC(=O)O)nc(C)cn2c1Cc1ccccc1-c1cccs1 [Compound I-101]
25		CCc1c(C(=O)C(N)=O)c2c(SCC(=O)O)nc(C)cn2c1Cc1ccccc1-c1ccc(F)cc1 [Compound I-58]
	204 to 205	CCc1c(C(=O)C(N)=O)c2c(OCC(=O)O)nc(C)cn2c1Cc1ccc(F)cc1 [Compound I-20]
1210		Cc1cn2c(Cc3ccc(F)cc3)c(C)nc(OCC(=O)O)c2c1C(=O)C(N)=O [Compound I-60]
15800		COC(=O)COc1nc(C)c(Cc2ccc(F)cc2)n2cc(C)c(C(=O)C(N)=O)c12 [Compound I-59]
11		CCc1c(C(=O)C(N)=O)c2c(OCC(=O)O)nccn2c1Cc1ccccc1 [Compound I-2, [6-Benzyl-7-ethyl-8-oxamoylpyrrolo[1,2-a]pyrazin-1-yl]oxyacetic acid]
77		CCc1c(C(=O)C(N)=O)c2c(OCC(=O)OCCN3CCOCC3)nc(C)cn2c1Cc1ccccc1-c1ccc(F)cc1 [Compound I-96]
	260 to 263	CCc1c(C(=O)C(N)=O)c2c(OCC(=O)O)nc(C)cn2c1Cc1ccccc1-c1ccsc1 (as salt: Na) [Compound I-102]
45		CCc1c(C(=O)C(N)=O)c2c(OCC(=O)O)nc(C)cn2c1Cc1ccccc1-c1cccnc1 [Compound I-66]

Compound	IC50 [1] [nM]	melting point [°C]
CCc1c(C(=O)C(N)=O)c2c(OCC(=O)O)nc(C)cn2c1Cc1ccccc1C#Cc1ccccc1 [Compound I-54, [7-Ethyl-3-methyl-8-oxamoyl-6-(2-phenylethynylbenzyl)pyrrolo [1,2-a]pyrazin-1-yl]oxyacetic acid]	6	
